We go through one compound from patent US20120070374A1, “Compounds for Non-Invasive Measurement of Aggregates of Amyloid Peptides” (priority 2009, published 2012).

One may read the Kd as the equilibrium constant for the complex coming apart.

The test deals with fibrils of Aβ40 and Aβ42. The test can be described thus: Inhibition of N-[^3H-methyl]6-OH-BTA-1 ([^3H]PIB) binding to β-amyloid fibrils, determination of Ki. Also on record: species or system Human. Conditions: radioligand used for Ki calculation; [L] 4 nM. Here is the method: Human Aβ40 and Aβ42 peptides (Bachem) were incubated at 0.5 mg/ml in a solution of 10 mM Na2HPO4, 1 mM EDTA (pH 7.4) at 37° C. for 48 h. The formation of fibrils was confirmed by microscopy and binding of [^3H]6-OH-BTA-1 ([^3H]PIB). Fibrils were either used immediately or aliquoted and subsequently stored at −80° C. until use. Solutions of the test substances (>95% purity according to analytical HPLC) or 6-OH-BTA-1 (>95% purity according to analytical HPLC; ABX Biochemicals, Radeberg, Germany) and N—[^3H-methyl]6-OH-BTA-1 were prepared as 1-10 mM dimethyl sulfoxide (DMSO) stocks before dilution into assay buffer. The maximum final concentration of DMSO in the assays was 1%. All assays were performed in 10 mM Na2HPO4. The incubation was performed at 25° C. for 180 min. The bound and free fractions were separated by vacuum filtration through GF/B glass filters (Whatman, Maidstone, UK) using a Perkin Elmer harvester (PerkinElmer, 96 Micro B Filtermat) followed by 6×0.2 ml washes with ice cold phosphate buffer. Filters containing the bound ligand were counted with a liquid scintillation counter (Wallac Trilux, 1450 Microbeta). […] The inhibition of [^3H]PIB binding was measured for five different concentrations of the test compound in question, performed in duplicates.

Turning to `CNc1ccc(-c2nc3ccc(O)cc3s2)cc1` [[^3H]PIB, N-[^3H-methyl]6-OH-BTA-1], the Kd is 4.2 nM.
